Reference: US11820762B2, “Compounds as potential therapeutic agents targeting various neurodegenerative diseases” (The Hong Kong University of Science and Technology, priority 2020, dated 2023)

Assays:
[1] = tested on: Neuro2a cells; test: Permeability on live cells (cell lysates analysed by UPLC-MS); assay type: in vitro ADME; conditions: 10, 20 μg/ml; 24 h, 48 h; UPLC-MS of lysates
Protocol: (§1) In addition, we also tested the permeability on live cells. Neuro2a cells treated with cA at different concentrations (10 μg/ml, 20 μg/ml) for different incubation time (24 h, 48 h) were lysed. Supernatants of cell lysates were collected and analyzed by UPLC-MS. Meanwhile, cell media from different treatment groups were used as control. […] In contrast, the intensity of cA signal was the same in the three corresponding cell media groups (FIG. 25, 4-6).

[2] = tested on: DNA (G4C2)2 (SEQ ID NO: 4) G4; test: 1D 1H-NMR titration of DNA (G4C2)2 G4; assay type: binding; conditions: cA at 1:1, 1:5, 1:10
Protocol: (§2) Single […] were purchased from Integrated DNA Technologies (IDT) and Takara. Single-strand DNA/RNA sample at 100 μM was then annealed by heating up to 95° C. for 15 mins, and slowly cooled to room temperature in the annealing buffer (70 mM KCl, 20 mM potassium phosphate (pH 7.0)) for overnight. The final NMR samples contained 0.1 mM DNA or RNA in 70 mM KCl and 20 mM potassium phosphate buffer (pH 7.0).
(§3) The 1D ^1H-NMR spectra were performed at 25° C. All compounds were dissolved in isotope-labeled d6-DMSO (Sigma-Aldrich) at about 50 mM concentration, working as stock solutions. To avoid chemical shift changes of DNA/RNA G4 resulted from d6-DMSO addition, […] d6-DMSO was added into 500 μL of 0.1 mM DNA/RNA G4 solution in the NMR buffer (20 mM potassium phosphate buffer and 70 mM KCl, pH 7.0, 10% D2O) and then 1D ^1H-NMR spectrum was recorded as a reference. During NMR titration experiments of adding each compound into the DNA/RNA G4 solution, the maximal volume of 10 μL of each compound in d6-DMSO solution was regarded as a final data point.
(§4) In addition to the four-repeat G4C2 DNA G4, there are parallel and hybrid G4 conformations formed simultaneously by the two-repeat G4C2 DNA^38,39. […]

[3] = tested on: DNA G-quadruplex formed by chicken DNA replication origin; test: 1D 1H-NMR titration of chicken DNA G-quadruplex; assay type: binding; conditions: 1:3 titration
Protocol: as §2, §3, §4

[4] = tested on: RNA (G4C2)2 (SEQ ID NO: 8) G4; test: 1D 1H-NMR titration of RNA (G4C2)2 G4; assay type: binding; conditions: ratios 1:3, 1:5, 1:10
Protocol: as §2
as §3, with “point. […]” for “point.”

[5] = tested on: human telomeric htel23 G4; test: 1D 1H-NMR titration of human telomeric htel23 G4; assay type: binding; conditions: 1:10 titration
Protocol: as §2, §3, §4

[6] = tested on: human telomeric variant htel21_T18 G4; test: 1D 1H-NMR titration of human telomeric variant htel21_T18 G4; assay type: binding; conditions: cA at 1:10
Protocol: as §2, §3, §4

[7] = tested on: G4C2 RNA foci in (G4C2)29 overexpressed Neuro2a cells; test: RNA fluorescent in situ hybridisation, RNA foci numbers; assay type: cell-based; parameters: CAGG (control probe) RNA foci numbers: dose or concentration left out as unconfirmed; conditions: for G4C2 RNA foci numbers in cells: 1 g/ml treatment for 2 days; for CAGG (control probe) RNA foci numbers: treatment for 2 days
Protocol: Neuro2a cells planted on coverslips were transfected with pHR-Tre3G-29xGGGGCC-12xMS2 plasmid (#99149), incubated for 2-3 days and then fixed with 4% paraformaldehyde for 15 min at room temperature. Cells were permeabilised with 0.1% TritonX-100 in PBS for 10 min before hybridisation. Target probe ([…]) (SEQ ID NO: 1) with a 5′-Cy3 and control probe ([…]) (SEQ ID NO: 2) with a 5′-Cy5 were added to the hybridisation solution (0.9M NaCl, 0.02M Tris-HCl, 0.01% SDS, 20% formamide). Cells were then incubated in the mixed solution at 46° C. for 3 h. Cells were washed three times in washing solution (0.02M Tris-HCl, 0.001% SDS, 5 mM EDTA) at 48° C., 15 min each time. Then, cells were stained with primary antibodies (Anti-DNA G-quadruplex (G4) antibody (Cat. No. MABE1126) or Anti-hnRNP H antibody (ab10374)) at 1:500 dilution and incubated at 4° C. overnight. In the next day, cells were washed three times with PBS (10 min each time), and then incubated with secondary antibodies (Alexa 488 anti-mouse for G4 or Alex 488 anti-rabbit for hnRNP H) at 1:500 dilution for 1 h at room temperature. Superfluous secondary antibodies were washed away with PBS for three times (10 min each time). Then cells were incubated with DAPI at 1:5000 dilution for 5 mins and washed with PBS once. Finally, cells on slides were air-dried, mounted in Hydromount medium and analysed by confocal microscopy (Leica, SP8).
Firstly, we confirmed that RNA foci were specifically observed in the (G4C2)29 (SEQ ID NO: 6) overexpressed Neuro2a cells (FIG. 8C).

[8] = Parallel artificial membrane permeability assay (PAMPA); assay type: in vitro ADME; conditions: PAMPA
Protocol: 500 μL of 500 μM test compound and 200 μM Equilibrium Standards for each test compound were prepared. 5 μL DMSO plus 245 μL PBS served as blank control. Firstly, 300 μL PBS was added to each well in the acceptor plate. With the donor plate in its tray, 5 μL 4% Lecithin in Dodecane was added directly to the well membranes of the donor plate. 200 μL of each 500 μM test compound was added to duplicate wells of the donor plate. The donor plate was carefully placed into the acceptor plate wells and incubated at 37° C. for 18 hours. Then the liquid in acceptor plate wells was collected as Acceptor Solution for analysis. Absorbance spectrum from 200 nm to 500 nm in 10 nm intervals was read to determine the peak absorbance of test compounds and blank control.
as §1

| SMILES | entry into live cells [1] | binding to DNA (G4C2)2 G4 by NMR titration [2] | binding to chicken DNA G-quadruplex by NMR titration [3] | binding to RNA (G4C2)2 G4 by NMR titration [4] | binding to htel23 G4 by NMR titration [5] | binding to htel21_T18 G4 by NMR titration [6] | G4C2 RNA foci numbers in cells [7] | CAGG (control probe) RNA foci numbers [7] | permeability (PAMPA) [8] |
| --- | --- | --- | --- | --- | --- | --- | --- | --- | --- |
| CC(=O)Cc1cc2c(c(O)c1C(=O)O)-c1c(c(O)c3oc4c(O[C@@H]5OC(C(=O)O)=C[C@H](O)[C@H]5O)cccc4c(=O)c3c1O)CC2 [cA, chrexanthomycin A] | could penetrate cell membrane and enter into cells | neither with 1:1 (light brown), 1:5 (blue) nor 1:10 (pink) titration of cA made significant chemical shift changes | did not show binding | Chemical shift changes were observed | no obvious chemical shift changes | no obvious chemical shift changes | significantly reduced | seldomly changed |  |
| CC(=O)Cc1cc2c(c(O)c1C(=O)O)-c1c(c(O)c3oc4c(O[C@@H]5O[C@H](C(=O)O)[C@@H](O)[C@H](O)[C@H]5O)cccc4c(=O)c3c1O)CC2 [cC, chrexanthomycin C] |  |  |  |  |  |  | significantly reduced | seldomly changed | good permeability |
